According to US11103488B2, “Methods of treating autoimmune, respiratory and inflammatory disorders by inhalation of roflumilast N-oxide” (Incozen Therapeutics Pvt. Ltd., priority 2013, dated 2021):
Read-outs that look alike come from different tables or passages of the source.

What was measured:
[1] = 7-day repeat dose safety study; type: in vivo, Wistar Rats
Description: In order to determine the safety of roflumilast N-oxide by inhalation compared to roflumilast by oral administration, a 7- and 14-day repeat dose safety study was conducted according to the protocol given in Table 5 below.

[2] = Lung microsome metabolic stability, dog; type: in vitro ADME; details: dog lung microsomes, 1 μM test item, 60 minutes, NADPH
Description: (§1) Metabolic stability studies were conducted using rat, dog and human lung microsomes. The protocol for the studies with rat, dog, and human lung microsomes (from Xenotech, USA) is provided below.
(§2) 0.4 mg protein was preincubated with 2 mM NADPH (cofactor) in phosphate buffer (pH˜7.4) for 15 minutes at […] and then added with 1 μM test item and incubated further for 60 minutes in triplicate. The reaction mixture was terminated with methanol containing an internal standard and centrifuged further to analyze the test item remaining in the supernatant by LC-MS/MS. The percent parent compound remaining was calculated in comparison with similar samples terminated at 0 minutes.

[3] = Lung microsome metabolic stability, human; type: in vitro ADME; details: 1 μM test item, 60 minutes, NADPH
Description: as §1, §2

neutrophil infiltration = test: Acute cigarette smoke induced cell infiltration, neutrophils; type: in vivo, female Balb/c mice; details: for Percent inhibition in neutrophil infiltration: oral, day 1 to day 4
Description: (§3) Animals were acclimatized for seven days prior to the start of the experiment. The animals were randomly distributed to various groups based on their body weight. For oral administration of roflumilast and for intranasal administration of roflumilast N-oxide, roflumilast or roflumilast N-oxide were prepared as a suspension in a suitable vehicle. On day 1, mice were administered roflumilast N-oxide or roflumilast and after 1 hour, the animals were placed in a whole body exposure box. On day 1 and day 2, the mice were exposed to the mainstream smoke of 6 cigarettes, and 8 cigarettes on day 3 and day 4. Exposure to the smoke of each cigarette lasted for 10 minutes (cigarettes were completely burned in the first two minutes and followed by an air flow with animal ventilator, then 20 minutes exposure to fresh room air). After every second cigarette an additional break of 20 minutes with exposure to fresh room air was conducted. Control animals were exposed to room air chamber. From day 1 to day 4, the animals were administered roflumilast N-oxide or roflumilast. On day 5, 24 hours after the last cigarette smoke (CS) exposure, the animals were exsanguinated under anaesthesia, the trachea were cannulated and the lungs were lavaged with 0.5-ml aliquots of heparinised PBS (1 unit/ml) four times through tracheal cannula (total volume 2 ml). Bronchioalveolar (BAL) collected was stored at 2-8° C. until assayed for total cell and differential leukocyte count. BAL fluid was centrifuged (500×g for 10 minutes) and the resulting cell pellet was resuspended in 0.5 ml of heparinised saline. The total number of white blood cells was determined in BAL fluid and adjusted to 1×10^6 cell/ml. Differential cell count was calculated manually by diff-quick staining. Forty microliters of the cell suspension was centrifuged using cytospin 3 to prepare a cell smear. The cell smear was stained with a blood staining solution for differentiation and microscopically observed to identify cell type according to their morphological characteristics. The number of each cell type among 300 white blood cells in the cell smear were determined and expressed as a percentage, and the number of neutrophils and macrophages in each BAL fluid were calculated.
(§4) Roflumilast and roflumilast N-oxide as a suspension in polysorbate 80 (1% v/v) and methyl cellulose (MC) (0.5% w/v) were used for oral and intranasal administration respectively.

[4] = test system: neutrophil infiltration (LPS-induced neutrophilia in BALF); test: Lipopolysaccharide (LPS) induced pulmonary neutrophilia; type: in vivo, female Sprague-Dawley rat; details: for ED50: Rattus norvegicus, Neutrophil, read-out: 50% inhibition (ED50) dose, neutrophil infiltration
Description: Roflumilast was prepared as a suspension in a suitable vehicle for oral administration. For intratracheal administration, roflumilast or roflumilast N-oxide was prepared as a dry powder mixture and administered by using a dry powder Insufflator (Penn-Century, USA) Animals were anaesthetized with ketamine and LPS solution was administered intratracheally one hour after roflumilast (at a dose of 0.3, 1, 3, and 10 mg/kg orally), or 30 minutes after roflumilast (at a dose of 10, 30 and 100 μg/kg i.t) or roflumilast N-oxide administration (at a dose of 10, 30 and 100 μg/kg, i.t). 6 hours after LPS instillation, animals were exsanguinated under anaesthesia, and then trachea were cannulated and the lungs were lavaged with 5-ml aliquots of heparinised PBS (1 unit/ml) four times through tracheal cannula (total volume 20 ml). BAL (bronchoalveolar lavage) fluid was stored at 2-8° C. until assayed for total cell and differential leukocyte count. Bronchioalveolar fluid was centrifuged (500×g for 10 minutes) and the resulting cell pellet was resuspended in 0.5 ml of heparinized saline. The total number of white blood cells were determined in BAL fluid using a blood cell counter and were adjusted to 1×10^6 cell/ml. Differential cell count was calculated manually. One hundred microliters of the cell suspension was centrifuged using cytospin 3 to prepare a cell smear. The cell smear was stained with a blood staining solution for differentiation and slides were microscopically observed to identify eosinophil according to their morphological characteristics. The number of each cell type among 300 white blood cells in the cell smear was determined and expressed as a percentage. The total number of neutrophils in each BAL fluid was calculated.
Roflumilast and roflumilast N-oxide were administered intratracheally (i.t) at doses of 100, 30, and 10 μg/kg as 1:200; 1:500; and 1:1000 drug:lactose blends, respectively.

[5] = roflumilast n = 4438; count, second figure in brackets; cited from earlier work
macrophage infiltration = test: Acute cigarette smoke induced cell infiltration, macrophages; type: in vivo, female Balb/c mice; details: for Percent inhibition in macrophage infiltration: oral, day 1 to day 4
Description: as §3, §4

[6] = Lung microsome metabolic stability, rat; type: in vitro ADME; details: rat lung microsomes, 1 μM test item, 60 minutes, NADPH
Description: as §1, §2

## O=C(Nc1c(Cl)cncc1Cl)c1ccc(OC(F)F)c(OCC2CC2)c1 [Roflumilast]
[1]; Oral, 10 mg/Kg/day, 7 days
  MORTALITY: 1M animal died on day 7
[1]; Wistar, rat, in vivo, 7 days
  Multiple of ED50 at which toxic: 5.5 fold
[1]; rat, in vivo, po, 10 mg/kg
  Overall safety in repeat dose study: showed significant toxicity
[1]; rat, in vivo, po, 10 mg/kg/day
  CLINICAL CHEMISTRY: Yes, reduced serum
  CLINICAL SIGNS: Abnormal clinical
  GROSS PATHOLOGY: Yes, treatment related
  HEMATOLOGY: Yes, elevated WBC
[2]
  Percent Parent Compound Remaining, Dog: 97.4%
[3]; human non smoker lung microsomes
  Percent Parent Compound Remaining, Human Non Smoker: 99.8%
[3]; human smoker lung microsomes
  Percent Parent Compound Remaining, Human Smoker: 98.8%
Neutrophil infiltration; Mus musculus, Neutrophil, oral administration, read-out: 50% inhibition (ED50) dose, neutrophil infiltration
  ED50: 1.75 mg/kg
Neutrophil infiltration; 1 mg/kg (b.i.d. per FIG. 4)
  Percent inhibition in neutrophil infiltration: 70.85%
Neutrophil infiltration; 3 mg/kg (b.i.d. per FIG. 4)
  Percent inhibition in neutrophil infiltration: 73.69%
Neutrophil infiltration; 10 mg/kg (b.i.d. per FIG. 4)
  Percent inhibition in neutrophil infiltration: 83.01%
[4]; inhaled or nasal, intratracheal administration
  ED50: 0.026 mg/kg
[4]; oral administration
  ED50: 1.8 mg/kg
[4]; intratracheal dry powder, 10 μg/kg, 30 minutes before LPS
  Percent inhibition in neutrophil infiltration: 31.76%
[4]; intratracheal dry powder, 30 μg/kg, 30 minutes before LPS
  Percent inhibition in neutrophil infiltration: 60.47%
[4]; intratracheal dry powder, 100 μg/kg, 30 minutes before LPS
  Percent inhibition in neutrophil infiltration: 64.40%
[4]; oral, 0.3 mg/kg, one hour before LPS, BAL 6 hours after LPS
  Percent inhibition in neutrophil infiltration: −7.89%
[4]; oral, 1 mg/kg, one hour before LPS, BAL 6 hours after LPS
  Percent inhibition in neutrophil infiltration: 43.46%
[4]; oral, 3 mg/kg, one hour before LPS, BAL 6 hours after LPS
  Percent inhibition in neutrophil infiltration: 68.02%
[4]; oral, 10 mg/kg, one hour before LPS, BAL 6 hours after LPS
  Percent inhibition in neutrophil infiltration: 92.21%
[5]
  AEs: Back pain: 142 (3.2)
  AEs: Decreased appetite: 91 (2.1)
  AEs: Diarrhoea: 420 (9.5)
  AEs: Dizziness: 92 (2.1)
  AEs: Headache: 195 (4.4)
  AEs: Influenza: 124 (2.8)
  AEs: Insomnia: 105 (2.4)
  AEs: Nausea: 209 (4.7)
  AEs: Weight loss: 331 (7.5)
Macrophage infiltration; Mus musculus, Macrophage, oral administration, read-out: 50% inhibition (ED50) dose, macrophage infiltration
  ED50: 3.5 mg/kg
Macrophage infiltration; 1 mg/kg (b.i.d. per FIG. 4)
  Percent inhibition in macrophage infiltration: 22.2%
Macrophage infiltration; 3 mg/kg (b.i.d. per FIG. 4)
  Percent inhibition in macrophage infiltration: 51.00%
Macrophage infiltration; 10 mg/kg (b.i.d. per FIG. 4)
  Percent inhibition in macrophage infiltration: 69.11%
[6]
  Percent Parent Compound Remaining, Rat: 97.1%
